The values that follow come from patent US20090270456A1, “Novel chemical compounds” (priority 2004, published 2009).

Assay [1] addresses T1, hYAK3 (Homo sapiens, UniProt O43781).
T1 construct: GST (N); His6 (C); made in house; host or cells: baculovirus expression system in Sf9 cells
T1 sequence (O43781 124-526): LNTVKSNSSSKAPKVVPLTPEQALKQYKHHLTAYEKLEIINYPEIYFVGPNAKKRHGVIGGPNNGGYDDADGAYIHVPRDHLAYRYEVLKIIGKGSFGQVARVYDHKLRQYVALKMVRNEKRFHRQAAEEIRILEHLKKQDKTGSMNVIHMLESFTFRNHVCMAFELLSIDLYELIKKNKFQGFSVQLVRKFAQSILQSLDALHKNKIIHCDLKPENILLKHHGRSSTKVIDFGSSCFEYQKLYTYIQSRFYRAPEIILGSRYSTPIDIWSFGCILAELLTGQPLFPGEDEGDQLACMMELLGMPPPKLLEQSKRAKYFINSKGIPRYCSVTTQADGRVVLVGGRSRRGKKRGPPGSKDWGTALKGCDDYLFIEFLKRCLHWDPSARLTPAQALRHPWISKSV
Briefly: YAK3 scintillation proximity assay using Ser164 of myelin basic protein as the phosphoacceptor. The format is biochemical. To be noted: purified GST-hYak3-His6, 4 μM Ser164 peptide, 0.001 mM ATP, 2 hours room temperature; read-out: pIC50 values (converted). The protocol:
YAK3 Scintillation Proximity Assays Using Ser164 of Myelin Basic Protein as the Phosphoacceptor
The source of Ser164 substrate peptide The biotinylated Ser164, S164A peptide(Biotinyl—LGGRDSRAGS*PMARR—OH), sequence derived from the C-terminus of bovine myelin basic protein (MBP) with Ser162 substituted as Ala162, was purchased from California Peptide Research Inc. (Napa, Calif.), and its purity was determined by HPLC. Phosphorylation occurs at position 164 (marked S* above). The calculated molecular mass of the peptide was 2166 dalton. Solid sample was dissolved at 10 mM in DMSO, aliquoted, and stored at −20° C. until use.
The source of hYAK3 enzyme: Glutathione-S-Transferase (GST)-hYak3-His6 containing amino acid residues 124-526 of human YAK3 (aa 124-526 of SEQ ID NO 2. in U.S. Pat. No. 6,323,318) was purified from baculovirus expression system in Sf9 cells using Glutathione Sepharose 4B column chromatography followed by Ni-NTA-Agarose column chromatography. Purity greater than 65% typically was achieved. Samples, in 50 mM Tris, 150 mM NaCl, 10% glycerol, 0.1% Triton, 250 mM imidazole, 10 mM β-mercapto ethanol, pH 8.0. were stored at −80° C. until use.
Kinase assay of purified hYAK3: Assays were performed in 96 well (Costar, Catalog No. 3789) or 384 well plates (Costar, Catalog No. 3705). […] Compounds, titrated in DMSO, were evaluated at concentrations ranging from 50 μM to 0.5 nM. […]

The target of assay [2] is T2, casein kinase 2 alpha (CK2α) (Homo sapiens, UniProt P68400).
T2 construct: made in house; host or cells: baculovirus-based vectors in Sf21 insect cells
Briefly: CK2α kinase assay using peptide phosphoacceptor (substrate phosphorylation, SPA). Conditions: purified CK2α (co-expressed with CK2β), 0.001 mM peptide, 0.001 mM ATP, 3 hours room temperature; read-out: pIC50 values (converted). The format is biochemical. On the procedure: Compounds of the present invention were also tested for casein kinase 2 alpha (CK2α) inhibitory activity in substrate phosphorylation assays. This assay examines the ability of small molecule organic compounds to inhibit the serine phosphorylation of a peptide substrate.
Kinase Assays Using Peptide Phosphoacceptor
The biotinylated peptide (Biotin—GGRRRDDDS*DDD-OH), was purchased from Biosource International, Inc. (Camarillo, Calif.), and its purity was determined by HPLC. Phosphorylation of serine (S*) occurs under assay conditions described. The calculated molecular mass of the peptide was 1713 dalton. Solid sample was dissolved at 10 mM in DMSO, aliquoted, and stored at −20° C. until use.
Recombinant expression of casein kinase 2 alpha (CK2α), using baculovirus-based vectors in Sf21 insect cells and purified by P11 phosphocellulose (Whatman) chromatography of the clarified cell lysate, produced constitutively active enzyme. CK2α was co-expressed with CK2β. Samples were stored at −20° C. in the presence of 50% glycerol until use.
Kinase Assay of Purified CK2α:
Assays were performed in 384 well plates (Costar, Catalog No. 3705). Compounds first were delivered to the plate in one microliter DMSO, followed by reaction mix (in 40 ul volume), which contained in final concentrations 25 mM Hepes buffer, pH 7.4; […]; 150 mM NaCl; 1 mM β-mercapto ethanol; 0.0025% Tween-20; 0.001 mM ATP, 0.1 μCi of [γ-33P]ATP; purified CK2α (6 ng/assay), and 0.001 mM peptide. […]
The data for dose responses were plotted as % Inhibition, calculated with the data reduction formula 100*(1−[(U1−C2)/(C1−C2)]), versus concentration of compound, where U is the unknown value, C1 is the average control value obtained for DMSO, and C2 is the average control value obtained for 0.05M EDTA Data were fitted to the curve described by: y=((Vmax*x)/(K+x)) where Vmax is the upper asymptote and K is the IC50. The results for each compound were recorded as pIC50 calculated as follows: pIC50=−Log 10(K) in Table 2.

T2 sequence (P68400 whole entry): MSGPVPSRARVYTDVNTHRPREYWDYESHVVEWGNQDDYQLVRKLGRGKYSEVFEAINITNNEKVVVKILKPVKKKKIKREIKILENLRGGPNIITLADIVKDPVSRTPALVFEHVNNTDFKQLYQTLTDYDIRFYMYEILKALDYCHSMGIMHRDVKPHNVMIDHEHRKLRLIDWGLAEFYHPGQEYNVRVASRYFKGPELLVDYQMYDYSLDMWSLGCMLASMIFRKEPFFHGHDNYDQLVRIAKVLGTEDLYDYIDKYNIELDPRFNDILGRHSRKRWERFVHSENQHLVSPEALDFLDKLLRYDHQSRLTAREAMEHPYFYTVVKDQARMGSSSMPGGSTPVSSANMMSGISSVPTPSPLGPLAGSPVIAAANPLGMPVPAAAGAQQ
T2 sequence (P67870 whole entry partner): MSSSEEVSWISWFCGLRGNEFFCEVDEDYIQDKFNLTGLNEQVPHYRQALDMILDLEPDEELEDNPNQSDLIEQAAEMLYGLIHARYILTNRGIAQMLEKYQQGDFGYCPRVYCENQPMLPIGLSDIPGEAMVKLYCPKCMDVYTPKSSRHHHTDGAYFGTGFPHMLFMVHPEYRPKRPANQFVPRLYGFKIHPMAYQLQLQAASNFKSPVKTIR

For the molecule `COc1ccc(-c2nc(Nc3ccccc3C(F)(F)F)c(C(=O)O)s2)cc1` [Ibd, 5-Carboxyl-2-(4-methoxyphenyl)-4-(2-trifluoromethylanilino)thiazole], the IC50 in assay [1] is 102 to 1000 nM.

Regarding `COc1cccc(-c2nc(Nc3ccccc3F)c(C(=O)O)s2)c1` [Ibf, 5-Carboxyl-4-(2-fluoroanilino)-2-(3-methoxyphenyl)thiazole], the IC50 in assay [1] was 1020 to 10000 nM.

Take `NC(=O)c1sc(-c2ccc3c(c2)CCO3)nc1Nc1ccccc1Cl` [Ieb, 4-(2-Chlorophenylamino)-2-(2,3-dihydrobenzofuran-5-yl) thiazole-5-carboxylic acid amide]: the IC50 in assay [2] is 1020 to 10000 nM.

Take `COc1ccc(-c2nc(Nc3cc(C(N)=O)ccc3Cl)c(C(=O)O)s2)cc1` [Ief, 4-(5-Carbamoyl-2-chlorophenylamino)-2-(4-methoxyphenyl)thiazole-5-carboxylic acid]: the IC50 in assay [2] is 10.2 to 100 nM.

On to `COc1ccc(-c2nc(Nc3cc(S(=O)(=O)O)ccc3Cl)c(C(=O)O)s2)cc1` [Ieg, 4-(2-Chloro-5-sulfophenylamino)-2-(4-methoxyphenyl) thiazole-5-carboxylic acid], for which the IC50 in assay [2] was 102 to 1000 nM.
